# Patent publication US20250332178A1, “METHODS OF TREATING MYCOBACTERIAL INFECTIONS USING TETRACYCLINE COMPOUNDS” (priority 2018, published 2025)
# System: H37Rv strain of Mycobacterium tuberculosis
# Experiment: MIC against H37Rv strain
# Type: cell-based
# Details: Mycobacterium tuberculosis, H37RV
# Protocol: The purpose of this study was to test activity of selected tetracycline compounds against the H37Rv strain of Mycobacterium tuberculosis. Minimum inhibitory concentrations (MIC) of different tetracycline compounds against H37Rv strain were determined and are shown in Table 8.
row,Structure (SMILES),MIC [µg/mL]
1,CN(C)c1cc(CNC(CF)CF)c(O)c2c1C[C@H]1C[C@H]3[C@H](N(C)C)C(O)=C(C(N)=O)C(=O)[C@@]3(O)C(O)=C1C2=O [Compound 79],32

# Same assay, conditions: Mycobacterium tuberculosis, H37RV; read-out: MIC
row,Structure (SMILES),MIC [µg/mL]
1,CCc1cc(CNC(C)=O)c(O)c2c1C[C@H]1C[C@H]3C(N(C)C)C(O)=C(C(N)=O)C(=O)[C@@]3(O)C(O)=C1C2=O (stereo partly drawn) [Compound 6],> 32
2,CC(N)CNCc1cc(N(C)C)c2c(c1O)C(=O)C1=C(O)[C@]3(O)C(=O)C(C(N)=O)=C(O)C(N(C)C)[C@@H]3C[C@@H]1C2 (stereo partly drawn) [Compound 51],> 32
3,CN(C)c1cc(CNc2nc(-c3ccc(F)cc3)cs2)c(O)c2c1C[C@H]1C[C@H]3C(N(C)C)C(O)=C(C(N)=O)C(=O)[C@@]3(O)C(O)=C1C2=O (stereo partly drawn) [Compound 75],> 32
4,CN(C)c1cc(CNC2CCCC2)c(O)c2c1C[C@H]1C[C@H]3C(N(C)C)C(O)=C(C(N)=O)C(=O)[C@@]3(O)C(O)=C1C2=O (stereo partly drawn) [Compound 43],> 32
5,CN(C)C1C(O)=C(C(N)=O)C(=O)[C@@]2(O)C(O)=C3C(=O)c4c(O)c(CNC(=O)C5CC5)cc(-c5ccc(C(C)(C)C)cc5)c4C[C@H]3C[C@@H]12 (stereo partly drawn) [Compound 31],> 32
6,CN(C)c1cc(CNC(=O)C2CCCN2)c(O)c2c1C[C@H]1C[C@H]3C(N(C)C)C(O)=C(C(N)=O)C(=O)[C@@]3(O)C(O)=C1C2=O (stereo partly drawn) [Compound 58],16
7,CCCCN(CCCC)Cc1cc(N(C)C)c2c(c1O)C(=O)C1=C(O)[C@]3(O)C(=O)C(C(N)=O)=C(O)C(N(C)C)[C@@H]3C[C@@H]1C2 (stereo partly drawn) [Compound 16],> 32
8,C[C@H]1c2ccc(CNCCc3ccccc3)c(O)c2C(=O)C2=C(O)[C@]3(O)C(=O)C(C(N)=O)=C(O)[C@@H](N(C)C)[C@@H]3[C@@H](O)[C@@H]21 [Compound 35],> 32
9,CN(C)c1cc(CNC(=O)c2ccno2)c(O)c2c1C[C@H]1C[C@H]3C(N(C)C)C(O)=C(C(N)=O)C(=O)[C@@]3(O)C(O)=C1C2=O (stereo partly drawn) [Compound 52],16
10,CN(C)c1ccc(NC(=O)NCc2cc(N(C)C)c3c(c2O)C(=O)C2=C(O)[C@]4(O)C(=O)C(C(N)=O)=C(O)[C@@H](N(C)C)[C@@H]4C[C@@H]2C3)cc1 [Compound 26],32
11,CCNCC(=O)NCc1cc(N(C)C)c2c(c1O)C(=O)C1=C(O)[C@]3(O)C(=O)C(C(N)=O)=C(O)[C@H](N(C)C)[C@@H]3C[C@@H]1C2 [Compound 46],32
12,CN(C)c1cc(CNCC2CCSCC2)c(O)c2c1C[C@H]1C[C@H]3C(N(C)C)C(O)=C(C(N)=O)C(=O)[C@@]3(O)C(O)=C1C2=O (stereo partly drawn) [Compound 50],> 32
13,CCC(C)CNCc1cc(N(C)C)c2c(c1O)C(=O)C1=C(O)[C@]3(O)C(=O)C(C(N)=O)=C(O)[C@@H](N(C)C)[C@@H]3C[C@@H]1C2 (stereo partly drawn) [Compound 53],16
14,CC(=O)NCc1cc(N(C)C)c2c(c1O)C(=O)C1=C(O)[C@]3(O)C(=O)C(C(N)=O)=C(O)C(N(C)C)[C@@H]3C[C@@H]1C2 (stereo partly drawn) [Compound 3],> 32
15,C[C@H]1c2ccc(CNCC(C)(C)C)c(O)c2C(=O)C2=C(O)[C@]3(O)C(=O)C(C(N)=O)=C(O)[C@@H](N(C)C)[C@@H]3[C@@H](O)[C@@H]21 [Compound 33],> 32
16,CN1CCC(NCc2cc(N(C)C)c3c(c2O)C(=O)C2=C(O)[C@]4(O)C(=O)C(C(N)=O)=C(O)[C@@H](N(C)C)[C@@H]4C[C@@H]2C3)CC1 [Compound 47],> 32
17,CN(C)[C@@H]1C(O)=C(C(N)=O)C(=O)[C@@]2(O)C(O)=C3C(=O)c4c(O)c(CNC(=O)c5cccnc5)cc(CCC5CCCCC5)c4C[C@H]3C[C@@H]12 [Compound 2],> 32
18,CCc1cc(CNCC(C)C)c(O)c2c1C[C@H]1C[C@H]3[C@H](N(C)C)C(O)=C(C(N)=O)C(=O)[C@@]3(O)C(O)=C1C2=O [Compound 30],> 32

row,Structure (SMILES),MIC [µg/mL]
1,CCc1cc(CNC(=O)c2cccnc2)c(O)c2c1C[C@H]1C[C@H]3[C@H](N(C)C)C(O)=C(C(N)=O)C(=O)[C@@]3(O)C(O)=C1C2=O [Compound 1],> 32
2,CC(CC(F)(F)F)NCc1cc(N(C)C)c2c(c1O)C(=O)C1=C(O)[C@]3(O)C(=O)C(C(N)=O)=C(O)[C@@H](N(C)C)[C@@H]3C[C@@H]1C2 (stereo partly drawn) [Compound 81],32
3,CN(C)c1cc(CNCc2ccccc2)c(O)c2c1C[C@H]1C[C@H]3[C@H](N(C)C)C(O)=C(C(N)=O)C(=O)[C@@]3(O)C(O)=C1C2=O [Compound 66],> 32
4,CCc1cc(CNC(=O)CN(C)C)c(O)c2c1C[C@H]1C[C@H]3[C@@H](N(C)C)C(O)=C(C(N)=O)C(=O)[C@@]3(O)C(O)=C1C2=O [Compound 36],32
5,CN(C)c1ccc(-c2cc(CN)c(O)c3c2C[C@H]2C[C@H]4[C@@H](N(C)C)C(O)=C(C(N)=O)C(=O)[C@@]4(O)C(O)=C2C3=O)cc1 [Compound 28],> 32
6,CC(CCO)NCc1cc(N(C)C)c2c(c1O)C(=O)C1=C(O)[C@]3(O)C(=O)C(C(N)=O)=C(O)[C@H](N(C)C)[C@@H]3C[C@@H]1C2 (stereo partly drawn) [Compound 44],> 32
7,CCc1cc(CC)c2c(c1O)C(=O)C1=C(O)[C@]3(O)C(=O)C(C(N)=O)=C(O)[C@@H](N(C)C)[C@@H]3C[C@@H]1C2 [Compound 4],> 32
8,CN(C)c1cc(CNC(=O)Nc2ccc(OC(F)(F)F)cc2)c(O)c2c1C[C@H]1C[C@H]3[C@H](N(C)C)C(O)=C(C(N)=O)C(=O)[C@@]3(O)C(O)=C1C2=O [Compound 27],8
9,CCCCCCOC(=O)NCc1cc(N(C)C)c2c(c1O)C(=O)C1=C(O)[C@]3(O)C(=O)C(C(N)=O)=C(O)[C@@H](N(C)C)[C@@H]3C[C@@H]1C2 [Compound 18],> 32
10,CN(C)c1cc(CNCc2cccn2C)c(O)c2c1C[C@H]1C[C@H]3[C@H](N(C)C)C(O)=C(C(N)=O)C(=O)[C@@]3(O)C(O)=C1C2=O [Compound 38],> 32
11,CC(C)CNCc1ccc2c(c1O)C(=O)C1=C(O)[C@]3(O)C(=O)C(C(N)=O)=C(O)[C@@H](N(C)C)[C@@H]3[C@@H](O)[C@@H]1[C@H]2C [Compound 34],32
12,CN(C)c1cc(CN2CCCC2)c(O)c2c1C[C@H]1C[C@H]3C(N(C)C)C(O)=C(C(N)=O)C(=O)[C@@]3(O)C(O)=C1C2=O (stereo partly drawn) [Compound 83],32
13,CN(C)c1cc(CNCc2cc(F)c(F)c(F)c2)c(O)c2c1C[C@H]1C[C@H]3C(N(C)C)C(O)=C(C(N)=O)C(=O)[C@@]3(O)C(O)=C1C2=O (stereo partly drawn) [Compound 77],> 32
14,Cc1cc(CNCc2cc(N(C)C)c3c(c2O)C(=O)C2=C(O)[C@]4(O)C(=O)C(C(N)=O)=C(O)[C@@H](N(C)C)[C@@H]4C[C@@H]2C3)oc1C [Compound 41],> 32
15,CN(C)[C@H]1C(O)=C(C(N)=O)C(=O)[C@@]2(O)C(O)=C3C(=O)c4c(O)c(CN)cc(-c5ccccc5)c4C[C@H]3C[C@@H]12 [Compound 32],> 32
16,CN(C)c1cc(CNC(=O)C2(N)CC2)c(O)c2c1C[C@H]1C[C@H]3[C@H](N(C)C)C(O)=C(C(N)=O)C(=O)[C@@]3(O)C(O)=C1C2=O [Compound 59],16
17,CC(C)CNCc1cc(N(C)C)c2c(c1O)C(=O)C1=C(O)[C@]3(O)C(=O)C(C(N)=O)=C(O)C(N(C)C)[C@@H]3C[C@@H]1C2 (stereo partly drawn) [Compound 45],32
